# Results as given in PubChem BioAssay (NCI).
#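 Cultured in 96-well plates, cells were exposed to test compound for 48 hours across five concentrations. Definition used: TGI = concentration required for complete inhibition of growth.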
# Experiments:
# Assay in all cases: DTP human tumour cell line panel, 48 h
# HCC-2998 colon = system: HCC-2998 colon
# ACHN renal = system: ACHN renal
# PC-3 prostate = system: PC-3 prostate
# HS 578T breast = system: HS 578T breast
# SF-268 CNS = system: SF-268 CNS
# NCI-H522 lung = system: NCI-H522 lung
# HL-60(TB) leukemia = system: HL-60(TB) leukemia
# SW-620 colon = system: SW-620 colon
# OVCAR-8 ovarian = system: OVCAR-8 ovarian
# SF-295 CNS = system: SF-295 CNS
# SNB-19 CNS = system: SNB-19 CNS
# HT29 colon = system: HT29 colon
# HCT-15 colon = system: HCT-15 colon
# MCF7 breast = system: MCF7 breast
# EKVX NSCLC = system: EKVX NSCLC
# UO-31 renal = system: UO-31 renal
# U251 CNS = system: U251 CNS
# SR leukemia = system: SR leukemia
# HOP-62 NSCLC = system: HOP-62 NSCLC
# M14 melanoma = system: M14 melanoma
# SN12C renal = system: SN12C renal
# OVCAR-5 ovarian = system: OVCAR-5 ovarian
# MALME-3M melanoma = system: MALME-3M melanoma
# NCI-H226 lung = system: NCI-H226 lung
# MOLT-4 leukemia = system: MOLT-4 leukemia
# SK-MEL-28 melanoma = system: SK-MEL-28 melanoma
# UACC-257 melanoma = system: UACC-257 melanoma
# RPMI-8226 leukemia = system: RPMI-8226 leukemia
# CAKI-1 renal = system: CAKI-1 renal
# COLO 205 colon = system: COLO 205 colon
# K-562 leukemia = system: K-562 leukemia
# OVCAR-3 ovarian = system: OVCAR-3 ovarian
# NCI-H23 lung = system: NCI-H23 lung
# SNB-75 CNS = system: SNB-75 CNS
# MDA-N = system: MDA-N
# TK-10 renal = system: TK-10 renal
# DU-145 prostate = system: DU-145 prostate
# LOX IMVI melanoma = system: LOX IMVI melanoma
# NCI-H460 lung = system: NCI-H460 lung
# IGROV1 ovarian = system: IGROV1 ovarian
# HCT-116 colon = system: HCT-116 colon
# KM12 colon = system: KM12 colon
# SF-539 CNS = system: SF-539 CNS
# MDA-MB-435 = system: MDA-MB-435
# MDA-MB-231 breast = system: MDA-MB-231 breast
# CCRF-CEM leukemia = system: CCRF-CEM leukemia
# A549 NSCLC = system: A549 NSCLC
# RXF 393 renal = system: RXF 393 renal
# 786-0 renal = system: 786-0 renal
# NCI/ADR-RES ovarian = system: NCI/ADR-RES ovarian
# SK-MEL-5 melanoma = system: SK-MEL-5 melanoma
# SK-OV-3 ovarian = system: SK-OV-3 ovarian
# A498 renal = system: A498 renal
# UACC-62 melanoma = system: UACC-62 melanoma
# HOP-92 NSCLC = system: HOP-92 NSCLC
# T-47D breast = system: T-47D breast
# OVCAR-4 ovarian = system: OVCAR-4 ovarian
compound,measurement,setting,value
COc1ccc(NS(=O)c2cccc(C)c2)cc1 (stereo unspecified),TGI,HCC-2998 colon,33.6 µM
same,TGI,ACHN renal,> 100 µM
same,TGI,PC-3 prostate,> 100 µM
same,TGI,HS 578T breast,> 100 µM
same,TGI,SF-268 CNS,> 100 µM
same,TGI,NCI-H522 lung,> 100 µM
same,TGI,HL-60(TB) leukemia,> 100 µM
same,TGI,SW-620 colon,> 100 µM
same,TGI,OVCAR-8 ovarian,> 100 µM
same,TGI,SF-295 CNS,> 100 µM
same,TGI,SNB-19 CNS,> 100 µM
same,TGI,HT29 colon,> 100 µM
same,TGI,HCT-15 colon,> 100 µM
same,TGI,MCF7 breast,> 100 µM
same,TGI,EKVX NSCLC,> 100 µM
same,TGI,UO-31 renal,> 100 µM
same,TGI,U251 CNS,> 100 µM
same,TGI,SR leukemia,> 100 µM
same,TGI,HOP-62 NSCLC,> 100 µM
same,TGI,M14 melanoma,> 100 µM
same,TGI,SN12C renal,> 100 µM
same,TGI,OVCAR-5 ovarian,> 100 µM
same,TGI,MALME-3M melanoma,> 100 µM
same,TGI,NCI-H226 lung,> 100 µM
same,TGI,MOLT-4 leukemia,> 100 µM
same,TGI,SK-MEL-28 melanoma,> 100 µM
same,TGI,UACC-257 melanoma,> 100 µM
same,TGI,RPMI-8226 leukemia,> 100 µM
same,TGI,CAKI-1 renal,> 100 µM
same,TGI,COLO 205 colon,> 100 µM
same,TGI,K-562 leukemia,> 100 µM
same,TGI,OVCAR-3 ovarian,> 100 µM
same,TGI,NCI-H23 lung,> 100 µM
same,TGI,SNB-75 CNS,> 100 µM
same,TGI,MDA-N,> 100 µM
same,TGI,TK-10 renal,> 100 µM
same,TGI,DU-145 prostate,> 100 µM
same,TGI,LOX IMVI melanoma,> 100 µM
same,TGI,NCI-H460 lung,> 100 µM
same,TGI,IGROV1 ovarian,> 100 µM
same,TGI,HCT-116 colon,> 100 µM
same,TGI,KM12 colon,> 100 µM
same,TGI,SF-539 CNS,66.7 µM
same,TGI,MDA-MB-435,> 100 µM
same,TGI,MDA-MB-231 breast,> 100 µM
same,TGI,CCRF-CEM leukemia,> 100 µM
same,TGI,A549 NSCLC,> 100 µM
same,TGI,RXF 393 renal,> 100 µM
same,TGI,786-0 renal,> 100 µM
same,TGI,NCI/ADR-RES ovarian,> 100 µM
same,TGI,SK-MEL-5 melanoma,75 µM
C/C(=C\CNc1nc(Cl)nc2nc[nH]c12)CO,TGI,HCC-2998 colon,> 100 µM
same,TGI,ACHN renal,> 100 µM
same,TGI,PC-3 prostate,> 100 µM
same,TGI,SK-OV-3 ovarian,> 100 µM
same,TGI,HS 578T breast,> 100 µM
same,TGI,SF-268 CNS,> 100 µM
same,TGI,NCI-H522 lung,> 100 µM
same,TGI,A498 renal,> 100 µM
same,TGI,HL-60(TB) leukemia,> 100 µM
same,TGI,SW-620 colon,> 100 µM
same,TGI,OVCAR-8 ovarian,> 100 µM
same,TGI,SF-295 CNS,> 100 µM
same,TGI,UACC-62 melanoma,> 100 µM
same,TGI,SNB-19 CNS,> 100 µM
same,TGI,HT29 colon,> 100 µM
same,TGI,MCF7 breast,> 100 µM
same,TGI,EKVX NSCLC,> 100 µM
same,TGI,UO-31 renal,> 100 µM
same,TGI,SR leukemia,> 100 µM
same,TGI,HOP-62 NSCLC,> 100 µM
same,TGI,M14 melanoma,> 100 µM
same,TGI,SN12C renal,> 100 µM
same,TGI,HOP-92 NSCLC,> 100 µM
same,TGI,OVCAR-5 ovarian,> 100 µM
same,TGI,MALME-3M melanoma,> 100 µM
same,TGI,NCI-H226 lung,> 100 µM
same,TGI,MOLT-4 leukemia,> 100 µM
same,TGI,SK-MEL-28 melanoma,> 100 µM
same,TGI,UACC-257 melanoma,> 100 µM
same,TGI,RPMI-8226 leukemia,> 100 µM
same,TGI,CAKI-1 renal,> 100 µM
same,TGI,COLO 205 colon,> 100 µM
same,TGI,K-562 leukemia,> 100 µM
same,TGI,OVCAR-3 ovarian,> 100 µM
same,TGI,NCI-H23 lung,> 100 µM
same,TGI,SNB-75 CNS,> 100 µM
same,TGI,MDA-N,> 100 µM
same,TGI,TK-10 renal,> 100 µM
same,TGI,DU-145 prostate,> 100 µM
same,TGI,LOX IMVI melanoma,> 100 µM
same,TGI,NCI-H460 lung,> 100 µM
same,TGI,IGROV1 ovarian,> 100 µM
same,TGI,HCT-116 colon,> 100 µM
same,TGI,KM12 colon,> 100 µM
same,TGI,SF-539 CNS,> 100 µM
same,TGI,T-47D breast,> 100 µM
same,TGI,OVCAR-4 ovarian,> 100 µM
same,TGI,MDA-MB-435,> 100 µM
same,TGI,MDA-MB-231 breast,> 100 µM
same,TGI,CCRF-CEM leukemia,> 100 µM
same,TGI,A549 NSCLC,> 100 µM
same,TGI,RXF 393 renal,> 100 µM
same,TGI,786-0 renal,> 100 µM
same,TGI,NCI/ADR-RES ovarian,> 100 µM
same,TGI,SK-MEL-5 melanoma,> 100 µM
